Test results: patent US12486239B2, “Benzotriazole compound, light absorber, and resin composition” (MITSUI CHEMICALS, INC., priority 2019, dated 2025)

Tests used:
Format in all cases: physicochemical
[1] = Solubility to various organic solvents; details: Table 6, room temperature; for Solubility: EA: ethyl acetate; for Solubility: MEK: methyl ethyl ketone; for Solubility: MMA: methyl methacrylate
Procedure: As Comparative Example 1, the solubility of TINUVIN326 (manufactured by BASF Japan Ltd.) represented by the following Formula (TI) was measured by the following method.
(§1) To 0.5 g of the benzotriazole compound, the various organic solvents shown in Table 1 were added such that the total mass was about 10 g, the mixture was irradiated with ultrasonic waves for about 30 minutes, and thereafter stirred at room temperature for 2 hours to prepare a dispersion of about 10% by mass.
The dispersion was filtered through a membrane filter (0.2 μm), and the obtained residue was dried in a dryer at 60° C. for 1 hour, and then the mass of the residue was measured.
The solubility of the benzotriazole compound to the solvent was expressed by the following formula. Solubility (% by mass)=(W0−W1)/W0
W0 is the mass of the benzotriazole compound before the treatment, and W1 is the mass of the residue after drying (that is, the dissolution residue of the benzotriazole compound). In a case in which no residue remained on the filter, the solubility was determined as 5% by mass or more.
The solubility of the benzotriazole compound obtained in each Example and Comparative Example was measured by the following method.
as §1, with “Table 6” for “Table 1”

[2] = Maximum absorption wavelength and gram absorption coefficient, toluene solution 0.002 g/L (second embodiment); details: optical path length 10 mm
Procedure: The maximum absorption wavelength of the benzotriazole compound of the second embodiment is measured using a spectrophotometer (for example, Shimadzu Spectrophotometer UV-1600 manufactured by Shimadzu Corporation) at optical path length of 10 mm using a toluene solution having a concentration of 0.002 g/L.
In Examples according to the second embodiment, the maximum absorption wavelength and the gram absorption coefficient of the benzotriazole compound were measured using a Shimadzu Spectrophotometer UV-1600 manufactured by Shimadzu Corporation at an optical path length of 10 mm using a toluene solution having a concentration of 0.002 g/L.

[3] = Heat resistance: TG5% decomposition temperature; details: Table 6; nitrogen atmosphere, heating rate 10° C./min
Procedure: In each Example and Comparative Example, the decomposition temperature was measured by the following method.
Using a thermal analyzer Rigaku ThermoPlus Evo TG8120, the TG5% decomposition temperature (T-5% by mass) was measured under a nitrogen atmosphere at a heating rate of 10° C./min and a temperature range of from room temperature to 500° C.
The higher the T-5% by mass, the higher the heat resistance.
The decomposition temperature of the benzotriazole compound obtained in each Example and Comparative Example was measured by the following method.

Row | Solubility: PGMEA [1] | Solubility: EA [1] | Solubility: MEK [1] | Solubility: MMA [1] | Solubility: Toluene [1] | gram absorption coefficient [2] | maximum absorption [2] | Decomposition temperature (Tg-5% by mass) [3] | SMILES
1 | ≤1 % by mass | ≤1 % by mass | ≤1 % by mass | ≤2 % by mass | 3≤ % by mass | 59200 mL/g/cm | 368.5 nm | 331.7 °C | Cc1cc(-n2nc3ccc(SCCOCCOCCSc4ccc5nn(-c6cc(C)cc(C(C)(C)C)c6O)nc5c4)cc3n2)c(O)c(C(C)(C)C)c1 [Compound D1]
2 | – | – | 3≤ % by mass | 3≤ % by mass | 3≤ % by mass | 63500 mL/g/cm | 368.0 nm | 322.2 °C | Cc1cc(-n2nc3ccc(SCCOCCSc4ccc5nn(-c6cc(C)cc(C(C)(C)C)c6O)nc5c4)cc3n2)c(O)c(C(C)(C)C)c1 [Compound D2]
3 | ≤1 % by mass | ≤1 % by mass | ≤0.5 % by mass | ≤0.5 % by mass | 1.5≤ % by mass | 62000 mL/g/cm | 364.5 nm | 335.1 °C | Cc1cc(-n2nc3ccc(SCCOC(=O)c4cc(C(=O)OCCSc5ccc6nn(-c7cc(C)cc(C(C)(C)C)c7O)nc6c5)cc(C(=O)OCCSc5ccc6nn(-c7cc(C)cc(C(C)(C)C)c7O)nc6c5)c4)cc3n2)c(O)c(C(C)(C)C)c1 [Compound D3]
